According to ChEMBL document CHEMBL1132044, “Synthesis and in vitro and in vivo evaluation of the 2-(6'methoxy-3',4'-dihydro-1'-naphtyl)-4H-3,1-benzoxazin-4-one as a new potent substrate inhibitor of human leukocyte elastase” (Bioorg Med Chem Lett, 1999):

Assays:
Neutrophil elastase = target: T1, Neutrophil elastase (Homo sapiens, UniProt P08246); experiment: In vitro inhibitory activity against human leukocyte elastase (HLE)
T1 sequence (P08246 whole entry): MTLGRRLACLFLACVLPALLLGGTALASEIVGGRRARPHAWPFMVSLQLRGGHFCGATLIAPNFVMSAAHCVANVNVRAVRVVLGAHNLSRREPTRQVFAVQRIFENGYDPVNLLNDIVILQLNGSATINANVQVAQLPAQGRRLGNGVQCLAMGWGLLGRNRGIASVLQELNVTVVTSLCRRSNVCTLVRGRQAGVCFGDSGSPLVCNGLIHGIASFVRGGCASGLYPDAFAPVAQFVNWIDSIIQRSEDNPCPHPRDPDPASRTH

[1] = target: T2, Neutrophil elastase (Homo sapiens) (UniProt P08246); experiment: In vitro inhibitory activity against human leukocyte elastase (HLE), at a concentration of 15 uM
T2 sequence (whole entry): T1 sequence (P08246 whole entry)

[2] = target: T2, Neutrophil elastase (Homo sapiens); experiment: In vitro inhibitory activity against human leukocyte elastase (HLE), at a concentration of 75 uM
[3] = target: T2, Neutrophil elastase (Homo sapiens); experiment: In vitro inhibitory activity against human leukocyte elastase (HLE), at a concentration of 1.5 uM

With `O=c1oc(-c2ccco2)nc2ccccc12` as the compound, how does the IC50 (Neutrophil elastase) read?
Its IC50 is 5.5 µM.

And the inhibition [1]?
Its inhibition is 65%.

What about the inhibition [2] of the same compound?
The inhibition was 88.7%.

And the inhibition [3]?
Its inhibition is 22.6%.

With `CCOC(=O)C1CCC(c2nc3ccccc3c(=O)o2)=CC1C` (centres undefined) as the compound, how does the inhibition [1] read?
The inhibition was 12%.

What about the inhibition [2] of the same compound?
Its inhibition is 20.8%.

What about the inhibition [3] of the same compound?
Its inhibition is 6%.

What does the source list for `COc1ccc2c(c1)CCC=C2c1nc2ccccc2c(=O)o1`?
IC50 (Neutrophil elastase): 0.61 µM; inhibition [1]: 92.8%; inhibition [2]: 99.6%; inhibition [3]: 69.9%

`O=c1oc(/C2=C/CCCCCC2)nc2ccccc12` was tested. Which IC50 (Neutrophil elastase) did it give?
Its IC50 is 7 µM.

What about the inhibition [1] of the same compound?
The inhibition was 64.5%.

And the inhibition [2]?
The inhibition was 87%.

And the inhibition [3]?
Its inhibition is 23%.

For `O=c1oc(-c2ccccc2)nc2ccccc12`, which IC50 (Neutrophil elastase) is on record?
Its IC50 is 17 µM.

And the inhibition [1]?
Its inhibition is 45.7%.

What about the inhibition [2] of the same compound?
Its inhibition is 76%.

And the inhibition [3]?
The inhibition was 16.2%.
